# Results: patent publication US20060069132A1, “Azolecarboxamide herbicides” (priority 2004, published 2006)
# Assays:
# Test in all cases: Test E pre-/postemergence herbicide test
# Canada horseweed = type: in vivo, Erigeron Canadensis
# Procedure, shortened: (§1)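 Seeds were planted and treated preemergence with test chemicals in a non-phytotoxic solvent mixture containing surfactant; plants at 2 to 18 cm (1- to 4-leaf stage) received postemergence applications of the same formulation. After 12 to 14 days in a greenhouse, injury was visually rated against untreated controls on a 0 to 100 scale.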
# itchgrass = type: in vivo, Rottboellia cochinchinensis
# Procedure, shortened: as §1
# johnsongrass = type: in vivo, Sorghum halepense
# Procedure, shortened: as §1
# common sowthistle = type: in vivo, Sonchus oleraceous
# Procedure, shortened: as §1
# green foxtail = type: in vivo, Setaria viridis
# Procedure, shortened: as §1
# common chickweed = type: in vivo, Stellaria media
# Procedure, shortened: as §1
# goosegrass = type: in vivo, Eleusine indica
# Procedure, shortened: as §1
# guineagrass = type: in vivo, Panicum maximum
# Procedure, shortened: as §1
# quackgrass = type: in vivo, Elytrigia repens
# Procedure, shortened: as §1
# common mallow = type: in vivo, Malva sylvestris
# Procedure, shortened: as §1
# [1] = Postemergence, 500 g ai/ha, scale 0 to 100
# [2] = Postemergence, 250 g ai/ha, scale 0 to 100
# [3] = Preemergence, 62 g ai/ha, scale 0 to 100
# [4] = Preemergence, 125 g ai/ha, scale 0 to 100
# [5] = Preemergence, 250 g ai/ha, scale 0 (no effect) to 100 (complete control)
# [6] = Preemergence, 500 g ai/ha, scale 0 (no effect) to 100 (complete control)
# [7] = postemergence, 125 g ai/ha, scale 0 to 100
# [8] = postemergence, 62 g ai/ha, scale 0 to 100
compound,measurement,setting,value
"CCc1nn(C(C)(C)C)cc1C(=O)Nc1cc(C(=O)N(C)C)ccc1F [Compound 222, N-[5-[(dimethylamino)carbonyl]-2-fluorophenyl]-1-(1,1-dimethylethyl)-3-ethyl-1H-pyrazole-4-carboxamide]","Plant response rating, Horseweed",Canada horseweed; [1],100
same,"Plant response rating, Horseweed",Canada horseweed; [2],90
same,"Plant response rating, Horseweed",Canada horseweed; [3],100
same,"Plant response rating, Horseweed",Canada horseweed; [4],100
same,"Plant response rating, Horseweed",Canada horseweed; [5],100
same,"Plant response rating, Horseweed",Canada horseweed; [6],100
same,"Plant response rating, Horseweed",Canada horseweed; [7],40
same,"Plant response rating, Horseweed",Canada horseweed; [8],20
same,"Plant response rating, Itchgrass",itchgrass; [2],70
same,"Plant response rating, Itchgrass",itchgrass; [3],75
same,"Plant response rating, Itchgrass",itchgrass; [4],95
same,"Plant response rating, Itchgrass",itchgrass; [5],95
same,"Plant response rating, Itchgrass",itchgrass; [6],95
same,"Plant response rating, Itchgrass",itchgrass; [7],60
same,"Plant response rating, Itchgrass",itchgrass; [8],60
same,"Plant response rating, Johnsongrass",johnsongrass; [2],60
same,"Plant response rating, Johnsongrass",johnsongrass; [3],70
same,"Plant response rating, Johnsongrass",johnsongrass; [4],80
same,"Plant response rating, Johnsongrass",johnsongrass; [5],90
same,"Plant response rating, Johnsongrass",johnsongrass; [6],100
same,"Plant response rating, Johnsongrass",johnsongrass; [7],60
same,"Plant response rating, Johnsongrass",johnsongrass; [8],10
same,"Plant response rating, Sowthistle",common sowthistle; [1],100
same,"Plant response rating, Sowthistle",common sowthistle; [2],100
same,"Plant response rating, Sowthistle",common sowthistle; [3],75
same,"Plant response rating, Sowthistle",common sowthistle; [4],90
same,"Plant response rating, Sowthistle",common sowthistle; [5],90
same,"Plant response rating, Sowthistle",common sowthistle; [6],95
same,"Plant response rating, Sowthistle",common sowthistle; [7],60
same,"Plant response rating, Sowthistle",common sowthistle; [8],20
same,"Plant response rating, Foxtail, Green",green foxtail; [2],80
same,"Plant response rating, Foxtail, Green",green foxtail; [3],10
same,"Plant response rating, Foxtail, Green",green foxtail; [4],50
same,"Plant response rating, Foxtail, Green",green foxtail; [5],100
same,"Plant response rating, Foxtail, Green",green foxtail; [6],100
same,"Plant response rating, Foxtail, Green",green foxtail; [7],40
same,"Plant response rating, Foxtail, Green",green foxtail; [8],10
same,"Plant response rating, Chickweed",common chickweed; [1],100
same,"Plant response rating, Chickweed",common chickweed; [2],100
same,"Plant response rating, Chickweed",common chickweed; [3],80
same,"Plant response rating, Chickweed",common chickweed; [4],100
same,"Plant response rating, Chickweed",common chickweed; [5],100
same,"Plant response rating, Chickweed",common chickweed; [6],100
same,"Plant response rating, Chickweed",common chickweed; [7],100
same,"Plant response rating, Chickweed",common chickweed; [8],80
same,"Plant response rating, Goosegrass",goosegrass; [1],90
same,"Plant response rating, Goosegrass",goosegrass; [2],90
same,"Plant response rating, Goosegrass",goosegrass; [3],60
same,"Plant response rating, Goosegrass",goosegrass; [4],75
same,"Plant response rating, Goosegrass",goosegrass; [5],90
same,"Plant response rating, Goosegrass",goosegrass; [6],95
same,"Plant response rating, Goosegrass",goosegrass; [7],75
same,"Plant response rating, Goosegrass",goosegrass; [8],60
same,"Plant response rating, Guineagrass",guineagrass; [2],100
same,"Plant response rating, Guineagrass",guineagrass; [3],90
same,"Plant response rating, Guineagrass",guineagrass; [4],95
same,"Plant response rating, Guineagrass",guineagrass; [5],100
same,"Plant response rating, Guineagrass",guineagrass; [6],100
same,"Plant response rating, Guineagrass",guineagrass; [7],70
same,"Plant response rating, Guineagrass",guineagrass; [8],70
same,"Plant response rating, Quackgrass",quackgrass; [1],85
same,"Plant response rating, Quackgrass",quackgrass; [2],80
same,"Plant response rating, Quackgrass",quackgrass; [3],10
same,"Plant response rating, Quackgrass",quackgrass; [4],80
same,"Plant response rating, Quackgrass",quackgrass; [5],100
same,"Plant response rating, Quackgrass",quackgrass; [6],100
same,"Plant response rating, Quackgrass",quackgrass; [7],75
same,"Plant response rating, Quackgrass",quackgrass; [8],30
same,"Plant response rating, Mallow",common mallow; [2],60
same,"Plant response rating, Mallow",common mallow; [3],70
same,"Plant response rating, Mallow",common mallow; [4],80
same,"Plant response rating, Mallow",common mallow; [5],95
same,"Plant response rating, Mallow",common mallow; [6],95
same,"Plant response rating, Mallow",common mallow; [7],60
same,"Plant response rating, Mallow",common mallow; [8],50
CCc1nn(C(C)C)nc1C(=O)Nc1cccc(C(=O)N2CCCCC2)c1 [Compound 385],"Plant response rating, Horseweed",Canada horseweed; [3],0
same,"Plant response rating, Horseweed",Canada horseweed; [5],0
same,"Plant response rating, Itchgrass",itchgrass; [3],20
same,"Plant response rating, Itchgrass",itchgrass; [4],20
same,"Plant response rating, Itchgrass",itchgrass; [5],20
same,"Plant response rating, Johnsongrass",johnsongrass; [3],10
same,"Plant response rating, Johnsongrass",johnsongrass; [4],10
same,"Plant response rating, Johnsongrass",johnsongrass; [5],30
same,"Plant response rating, Sowthistle",common sowthistle; [4],0
same,"Plant response rating, Sowthistle",common sowthistle; [5],60
same,"Plant response rating, Foxtail, Green",green foxtail; [3],10
same,"Plant response rating, Foxtail, Green",green foxtail; [4],30
same,"Plant response rating, Foxtail, Green",green foxtail; [5],60
same,"Plant response rating, Chickweed",common chickweed; [3],20
same,"Plant response rating, Chickweed",common chickweed; [4],20
same,"Plant response rating, Chickweed",common chickweed; [5],60
same,"Plant response rating, Goosegrass",goosegrass; [3],20
same,"Plant response rating, Goosegrass",goosegrass; [4],20
same,"Plant response rating, Goosegrass",goosegrass; [5],50
same,"Plant response rating, Guineagrass",guineagrass; [4],60
same,"Plant response rating, Guineagrass",guineagrass; [5],100
same,"Plant response rating, Quackgrass",quackgrass; [3],10
same,"Plant response rating, Quackgrass",quackgrass; [4],20
same,"Plant response rating, Quackgrass",quackgrass; [5],30
same,"Plant response rating, Mallow",common mallow; [3],10
same,"Plant response rating, Mallow",common mallow; [4],10
same,"Plant response rating, Mallow",common mallow; [5],20
CCc1nn(C(C)C)nc1C(=O)Nc1cccc(C(=O)N(C)CC)c1 [Compound 386],"Plant response rating, Horseweed",Canada horseweed; [4],75
same,"Plant response rating, Horseweed",Canada horseweed; [5],95
same,"Plant response rating, Itchgrass",itchgrass; [4],70
same,"Plant response rating, Itchgrass",itchgrass; [5],70
same,"Plant response rating, Johnsongrass",johnsongrass; [4],75
same,"Plant response rating, Johnsongrass",johnsongrass; [5],80
same,"Plant response rating, Sowthistle",common sowthistle; [4],60
same,"Plant response rating, Sowthistle",common sowthistle; [5],100
same,"Plant response rating, Foxtail, Green",green foxtail; [4],60
same,"Plant response rating, Foxtail, Green",green foxtail; [5],95
same,"Plant response rating, Chickweed",common chickweed; [4],95
same,"Plant response rating, Chickweed",common chickweed; [5],95
same,"Plant response rating, Goosegrass",goosegrass; [4],80
same,"Plant response rating, Goosegrass",goosegrass; [5],95
same,"Plant response rating, Guineagrass",guineagrass; [4],80
same,"Plant response rating, Guineagrass",guineagrass; [5],100
same,"Plant response rating, Quackgrass",quackgrass; [4],80
same,"Plant response rating, Quackgrass",quackgrass; [5],90
same,"Plant response rating, Mallow",common mallow; [4],60
same,"Plant response rating, Mallow",common mallow; [5],70
